Measured values published in ChEMBL document CHEMBL4342522 (J Med Chem, 2020).

Assays:
[1] = Unbound hepatic clearance in rat liver microsomes; type: ADME, Microsome
NCI-H1299 = assay: Antiproliferative activity against human H1299 cells assessed as reduction in cell viability after 5 days by CellTiter-Glo assay; type: functional, cell-based; conditions: NCI-H1299, 120 h
[2] = molecular target: T1, Bromodomain-containing protein 4 (Homo sapiens, UniProt O60885); assay: Inhibition of human N-terminal His6 tagged BRD4 BD2 (352 to 457) residues expressed in Escherichia coli BL21(DE3) cells after 1 hr by TR-FRET assay
[3] = Unbound hepatic clearance in human liver microsomes; type: ADME, Microsome
[4] = molecular target: T1, Bromodomain-containing protein 4; assay: biochemical; type: cell-based
Description: Inhibition of human N-terminal His6 tagged BRD4 BD1 (57 to 168) residues expressed in Escherichia coli BL21(DE3) cells after 1 hr by TR-FRET assay

[5] = Permeability in dog MDCK cells by PAMPA; type: ADME, cell-based, Canis lupus familiaris; conditions: read-out: permeability
[6] = Unbound hepatic clearance in mouse liver microsomes; type: ADME, Microsome
SKM-1 = assay: Antiproliferative activity against human SKM1 cells assessed as reduction in cell viability after 5 days by CellTiter-Glo assay; type: functional, cell-based; conditions: SKM-1, 120 h

Row | SMILES | CL free [1] [mL/min/kg] | IC50 (NCI-H1299) [µM] | Ki [2] [µM] | CL free [3] [mL/min/kg] | Ki [4] [µM] | Papp [5] [×10⁻⁶ cm/s] | CL free [6] [mL/min/kg] | IC50 (SKM-1) [µM]
1 | CCNC(=O)c1cc2c(-c3cc(S(=O)(=O)CC)ccc3-c3ccccc3C)cn(C)c(=O)c2[nH]1 | 350 | 2.6 | 0.0011 | 112 | 0.18 | 10.3 | 750 | 0.0095
2 | Cc1cc(F)cc(C)c1Oc1ccc(C(C)(C)O)cc1-c1cn(C)c(=O)c2[nH]c(C(=O)NC(C)(C)C)cc12 | 1450 | 1.5 | 0.0013 | 2170 | 0.31 |  | 8670 | 0.025
3 | CCNC(=O)c1cc2c(-c3cc(S(=O)(=O)CC)ccc3Oc3c(C)cccc3C#N)cn(C)c(=O)c2[nH]1 | 1530 | 0.73 | 0.0032 | 683 | 0.069 | 15.3 | 817 | 0.037
4 | CCNC(=O)c1cc2c(-c3cc(S(=O)(=O)CC)ccc3Oc3cc(C)cc(C)c3)cn(C)c(=O)c2[nH]1 | 1620 | 0.094 | 0.0007 | 533 | 0.0083 | 3.1 | 1600 | 0.0026
5 | CCNC(=O)c1ccc(Oc2c(C)cccc2C)c(-c2cn(C)c(=O)c3[nH]c(C(=O)NCC)cc23)c1 |  | 1.5 | 0.0018 | 217 | 0.13 | 2.63 | 317 | 0.019
6 | CCNC(=O)c1cc2c(-c3cc(NS(=O)(=O)CC)ccc3Oc3c(C)cccc3C)cn(C)c(=O)c2[nH]1 | 14700 | 0.3 | 0.0008 | 183 | 0.017 | 0.22 | 1320 | 0.0017
7 | CCNC(=O)c1cc2c(-c3cc(S(=O)(=O)CC)ccc3Oc3c(C)cccc3C(C)(C)C)cn(C)c(=O)c2[nH]1 |  | 3.2 | 0.015 |  | 0.4 |  |  | 0.29
8 | CCNC(=O)c1cc2c(-c3cc(S(=O)(=O)CC)ccc3Oc3ccccc3C(C)(C)C)cn(C)c(=O)c2[nH]1 | 1430 | 0.46 | 0.0021 | 1620 | 0.022 | 5.6 |  | 0.021
9 | CCNC(=O)c1cc2c(-c3cc(S(=O)(=O)C4CC4)ccc3Oc3c(C)cccc3C)cn(C)c(=O)c2[nH]1 | 1780 | 0.73 | 0.0006 | 300 | 0.038 | 8.33 | 1720 | 0.02
10 | CCNC(=O)c1cc2c(-c3cc(S(=O)(=O)CC)ccc3Oc3c(C)cc(Cl)cc3C)cn(C)c(=O)c2[nH]1 | 1580 | 0.7 | 0.0008 | 783 | 0.082 | 1.46 | 2000 | 0.11
11 | Cc1cc(F)cc(C)c1Oc1ccc(C(C)(C)O)cc1-c1cn(C)c(=O)c2[nH]c(C(=O)NC3(C)CC3(F)F)cc12 (stereo not drawn) | 1400 | 2.9 | 0.002 | 1120 | 0.78 | 0.76 | 3500 | 0.066
12 | CCNC(=O)c1cc2c(-c3cc(S(=O)(=O)CC)ccc3Oc3c(C)cccc3F)cn(C)c(=O)c2[nH]1 | 2530 | 0.26 | 0.0009 | 150 | 0.013 | 15.4 |  | 0.0025
13 | CCNC(=O)c1cc2c(-c3cc(S(=O)(=O)CC)ccc3Oc3ccccc3C)cn(C)c(=O)c2[nH]1 |  | 0.095 | 0.0008 | 142 | 0.0084 | 3.68 | 1100 | 0.0033
14 | CCNC(=O)c1cc2c(-c3cc(NC(C)=O)ccc3Oc3c(C)cccc3C)cn(C)c(=O)c2[nH]1 | 667 | 0.73 | 0.0005 | 83.3 | 0.076 | 1.96 | 2000 | 0.0035
15 | CCNC(=O)c1cc2c(-c3cc(S(=O)(=O)CC)ccc3Oc3c(C)cccc3C(F)F)cn(C)c(=O)c2[nH]1 | 200 | 0.88 | 0.0021 | 75 | 0.16 | 15.2 | 900 | 0.024
16 | CCNC(=O)c1cc2c(-c3cc(S(=O)(=O)CC)ccc3Oc3c(C)cc(F)cc3C)cn(C)c(=O)c2[nH]1 | 467 | 0.81 | 0.0013 | 167 | 0.079 | 6.12 | 917 | 0.014
17 | CCNC(=O)c1cc2c(-c3cc(S(=O)(=O)CC)ccc3-c3cccc4cc[nH]c34)cn(C)c(=O)c2[nH]1 | 233 | 3.9 | 0.0009 | 140 | 0.17 | 3.5 | 517 | 0.034
18 | CNC(=O)c1cc2c(-c3cc(C(C)(C)O)ccc3Oc3c(C)cc(F)cc3C)cn(C)c(=O)c2[nH]1 | 167 | 1.2 | 0.001 | 400 | 0.14 | 0.55 | 550 | 0.013

Row | SMILES | CL free [1] [mL/min/kg] | IC50 (NCI-H1299) [µM] | Ki [2] [µM] | CL free [3] [mL/min/kg] | Ki [4] [µM] | Papp [5] [×10⁻⁶ cm/s] | CL free [6] [mL/min/kg] | IC50 (SKM-1) [µM]
19 | CCNC(=O)c1cc2c(-c3cc(S(=O)(=O)CC)ccc3Oc3c(C)cccc3C(F)(F)F)cn(C)c(=O)c2[nH]1 | 200 | 1.2 | 0.0058 | 75 | 0.47 | 15.2 | 900 | 0.028
20 | CCNC(=O)c1cc2c(-c3cc(S(C)(=O)=O)ccc3Nc3c(C)cccc3C)cn(C)c(=O)c2[nH]1 | 433 | 3.6 | 0.0043 | 117 | 0.25 | 3.59 | 483 | 0.068
21 | CCNC(=O)c1cc2c(-c3cc(C4(O)CCOCC4)ccc3Oc3c(C)cc(F)cc3C)cn(C)c(=O)c2[nH]1 | 817 | 2.1 | 0.0012 | 8670 | 0.3 | 1.47 | 1670 | 0.0067
22 | Cc1cc(F)cc(C)c1Oc1ccc(C(C)(C)O)cc1-c1cn(C)c(=O)c2[nH]c(C(=O)NC(C)(C)C(F)(F)F)cc12 | 18300 | 2.6 |  | 9500 |  | 0.57 | 46700 | 0.08
23 | Cc1cc(F)cc(C)c1Oc1ccc(C(C)(C)O)cc1-c1cn(C)c(=O)c2[nH]c(C(=O)NC34CC(C3)C4)cc12 |  | 1.1 | 0.0013 | 2000 | 0.44 | 0.97 | 11800 | 0.01
24 | CCNC(=O)c1cc2c(-c3cc(S(=O)(=O)CC)ccc3Oc3c(C)cccc3Cl)cn(C)c(=O)c2[nH]1 | 2120 | 0.67 | 0.0009 | 255 | 0.03 | 2.73 |  | 0.0062
25 | CCNC(=O)c1cc2c(-c3cc(S(=O)(=O)CC)ccc3-n3ccc4cccc(C)c43)cn(C)c(=O)c2[nH]1 | 1550 | 1.9 | 0.0011 | 700 | 0.38 | 14.7 | 1830 | 0.023
26 | CCNC(=O)c1cc2c(-c3cc(CO)ccc3Oc3c(C)cccc3C)cn(C)c(=O)c2[nH]1 |  | 3 | 0.0017 | 417 | 0.27 | 1.69 | 2330 | 0.065
27 | CCNC(=O)c1cc2c(-c3cc(S(N)(=O)=O)ccc3Oc3c(C)cccc3C)cn(C)c(=O)c2[nH]1 |  | 3 | 0.0011 |  | 0.066 |  |  | 0.007
28 | CCNC(=O)c1cc2c(-c3cc(NS(=O)(=O)CC)ccc3Oc3c(C)cc(F)cc3C)cn(C)c(=O)c2[nH]1 |  | 0.97 | 0.0011 | 317 | 0.049 | 0.23 | 2000 | 0.042
29 | CCNC(=O)c1cc2c(-c3cc(S(C)(=O)=O)ccc3Oc3ccc(F)cc3F)cn(C)c(=O)c2[nH]1 | < 51.7 | 0.37 | 0.0013 | 60 |  | 10.8 | < 91.7 | 0.0066
30 | CCNC(=O)c1cc2c(-c3cc(NC(=O)OC)ccc3Oc3c(C)cc(F)cc3C)cn(C)c(=O)c2[nH]1 |  | 2.4 | 0.0029 | 550 | 0.29 | 0.92 | 6330 | 0.05
31 | COc1ccc2c(c1)[C@]13CCCC[C@@H]1[C@H](C2)N(C)CC3 [DEXTROMETHORPHAN] | 123 |  |  |  |  |  |  | 
32 | CCNC(=O)c1cc2c(-c3cc(C4(O)COC4)ccc3Oc3c(C)cc(F)cc3C)cn(C)c(=O)c2[nH]1 | 267 | 2.7 | 0.0011 | 350 |  | 1.66 | 533 | 0.024
33 | CCNC(=O)c1cc2c(-c3cc(C(=O)O)ccc3Oc3c(C)cccc3C)cn(C)c(=O)c2[nH]1 |  | > 10 | 0.0028 |  | 0.3 | 0.74 |  | 3.1
34 | CCNC(=O)c1cc2c(-c3cc(S(=O)(=O)CC)ccc3-c3c(C)cccc3C)cn(C)c(=O)c2[nH]1 | 617 | > 10 | 0.022 | 550 | > 12 | 9 |  | 1.3
35 | CCNC(=O)c1cc2c(-c3cc(S(=O)(=O)CC)ccc3N3CCc4cccc(C)c43)cn(C)c(=O)c2[nH]1 |  | 0.34 | 0.0005 |  | 0.009 |  |  | 0.0042
